Measurements published in patent US4889859A, “Pyrido[2,3-d]pyrimidine derivatives” (priority 1988, dated 1989).
Converted amounts (≈) assume the structure as drawn.

Tests used:
[1] = test system: human leukemia cell line (CCRF-CEM); test: IC50 determined in whole cell human leukemia cell line (CCRF-CEM); format: cell-based
Text: Representative IC50 values determined in whole cell human leukemia cell line (CCRF-CEM) are as follows: […]

[2] = test system: C3H mammary adenocarcinoma; test: C3H mammary adenocarcinoma implanted in mice, intraperitoneal treatment for five days; format: in vivo; details: intraperitoneally for five days
Experimental: At a dosage of 100 mg/kg, 80% inhibition was observed.

6C3HED lymphosarcoma = 6C3HED lymphosarcoma in mice; format: in vivo
[3] = literature; cited from earlier work
mouse L1210 leukemia = details: literature; cited from earlier work
dihydrofolate reductase = details: literature; cited from earlier work

SMILES: Nc1nc(O)c2c(n1)NCC(CCc1cccc(C(=O)N[C@@H](CCC(=O)O)C(=O)O)c1)C2 (stereo partly drawn) [A, N-(3-[2-(2amino-4-hydroxy-5,6,7,8-tetrahydropyrido[2,3-d]pyrimidin-6-yl)ethyl]benzoyl)-L-glutamic acid]
- IC50 [1]: 0.015 µg/mL (≈ 0.0338 µM)

SMILES: Nc1nc(O)c2c(n1)NCC(CCc1ccc(C(=O)N[C@@H](CCC(=O)O)C(=O)O)c(F)c1)C2 (stereo partly drawn) [Compound H, N-(2-fluoro-4-[2-(2-amino-4-hydroxy-5,6,7,8-tetrahydropyrido[2,3-d]pyrimidin-6-yl)ethyl]benzoyl)-L-glutamic acid]
- IC50 [1]: 0.004 µg/mL (≈ 0.00867 µM)
- toxicity ([2]; 30 mg/kg and 100 mg/kg): No toxicity was observed
- inhibition ([2]; 30 mg/kg): 72%
- inhibition ([2]; 100 mg/kg): 80%
- % INHIBITION (6C3HED lymphosarcoma; dose 25 (MK/KG)): 94%
- TOXIC/TOTAL (6C3HED lymphosarcoma; dose 25 (MK/KG)): 0/9
- % INHIBITION (6C3HED lymphosarcoma; dose 50 (MK/KG)): 95%
- TOXIC/TOTAL (6C3HED lymphosarcoma; dose 50 (MK/KG)): 0/10
- % INHIBITION (6C3HED lymphosarcoma; dose 100 (MK/KG)): 100%
- TOXIC/TOTAL (6C3HED lymphosarcoma; dose 100 (MK/KG)): 0/10
- % INHIBITION (6C3HED lymphosarcoma; dose 200 (MK/KG)): 100%
- TOXIC/TOTAL (6C3HED lymphosarcoma; dose 200 (MK/KG)): 0/10

SMILES: Nc1nc2ncc(CNc3ccc(C(=O)N[C@@H](CCC(=O)O)C(=O)O)cc3)cc2c(=O)[nH]1 [5-Deazafolic acid]
- cytotoxicity [3]: only weakly cytotoxic

SMILES: Nc1nc(N)c2cc(CCc3ccc(C(=O)N[C@@H](CCC(=O)O)C(=O)O)cc3)ccc2n1 [5,8,10-trideazaaminopterin]
- activity against mouse L1210 leukemia (mouse L1210 leukemia): exhibits activity

SMILES: Nc1nc(O)c2c(n1)NCC(CCc1ccc(F)c(C(=O)N[C@@H](CCC(=O)O)C(=O)O)c1)C2 (stereo partly drawn) [D, N-(2-fluoro-5-[2-(2-amino-4-hydroxy-5,6,7,8-tetrahydropyrido[2,3-d]pyrimidin-6-yl)ethyl]benzoyl)-L-glutamic acid]
- IC50 [1]: 0.1 µg/mL (≈ 0.217 µM)

SMILES: Nc1nc2ccc(CCc3ccc(C(=O)N[C@@H](CCC(=O)O)C(=O)O)cc3)nc2c(=O)[nH]1 [8,10-Dideazafolic acid]
- dihydrofolate reductase inhibition (dihydrofolate reductase): only marginally effective

SMILES: Nc1nc2ccc(CCc3ccc(C(=O)N[C@@H](CCC(=O)O)C(=O)O)cc3)cc2c(=O)[nH]1 [5,8,10-trideazafolic acid]
- activity against mouse L1210 leukemia (mouse L1210 leukemia): only marginal activity

SMILES: Nc1nc(N)c2nc(CCc3ccc(C(=O)N[C@@H](CCC(=O)O)C(=O)O)cc3)cnc2n1 [10-Deazaaminopterin]
- antimetabolic activity [3]: highly active

SMILES: Nc1nc2ncc(CCc3ccc(C(=O)N[C@@H](CCC(=O)O)C(=O)O)cc3)nc2c(=O)[nH]1 [10-deazafolic acid]
- antimetabolic activity [3]: no significant activity

SMILES: Nc1nc(N)c2nc(CCc3ccc(C(=O)N[C@@H](CCC(=O)O)C(=O)O)cc3)ccc2n1 [8,10-Dideazaaminopterin]
- antimetabolic activity [3]: active

SMILES: CN(Cc1cnc2nc(N)nc(N)c2n1)c1ccc(C(=O)N[C@@H](CCC(=O)O)C(=O)O)cc1 [Amethopterin, 10-methylaminopterin]
- dihydrofolate reductase inhibition (dihydrofolate reductase): inhibits dihydrofolate reductase

SMILES: Nc1nc(O)c2c(n1)NCC(CCc1ccc(C(=O)N[C@@H](CCC(=O)O)C(=O)O)c(Cl)c1)C2 (stereo partly drawn) [F, N-(2-chloro-4-[2-(2-amino-4-hydroxy-5,6,7,8-tetrahydropyrido[2,3-d]pyrimidin-6-yl)ethyl]benzoyl)-L-glutamic acid]
- IC50 [1]: 0.027 µg/mL (≈ 0.0565 µM)
